Source: US20240067693A1, “POLYPEPTIDES AND USES THEREOF” (MEDIMMUNE LIMITED, priority 2020, published 2024)
Numbered stars: 1 amine (or outer) side, 2 acyl side, 3 side chain; on linkers, the order of the positions; unused ones are H or OH. Bridge positions count the residues as written; N and C are the ends. Square brackets hold non-standard residues; d marks the D form. Side chains are listed from the residue outwards. Peptide text beside a SMILES is read from it. * marks the point of attachment. C20 diacid = O=C(O)CCCCCCCCCCCCCCCCCCC(=O)*; C18 diacid = O=C(O)CCCCCCCCCCCCCCCCC(=O)*; γGlu = O=C(O)[C@H](CCC(=O)[*:2])N[*:1]; αMeF = C[C@](N)(Cc1ccccc1)C(=O)O; Aib = CC(C)(N)C(=O)O

Experiments:
[1] = biological target: T1, human amylin receptor (calcitonin receptor co-expressed with receptor activity modifying protein, RAMP3) (hAMYR3) (Homo sapiens, UniProt O60896+P30988); assay: cAMP production in 1321N1 cells with stable recombinant expression of human amylin receptor (hAMYR3); format: cell-based; conditions: for Ratio (selectivity hAMYR vs hCTR, ratio of EC50 values at the two receptors): EC50 hCTR / EC50 hAMYR3; for EC50: cAMP, 1321N1 cells, assay buffer with 0.1% BSA, read-out: EC50 (pM) hAMYR3
T1 construct: expressed in transfected cells
T1 sequence (P30988 25-474): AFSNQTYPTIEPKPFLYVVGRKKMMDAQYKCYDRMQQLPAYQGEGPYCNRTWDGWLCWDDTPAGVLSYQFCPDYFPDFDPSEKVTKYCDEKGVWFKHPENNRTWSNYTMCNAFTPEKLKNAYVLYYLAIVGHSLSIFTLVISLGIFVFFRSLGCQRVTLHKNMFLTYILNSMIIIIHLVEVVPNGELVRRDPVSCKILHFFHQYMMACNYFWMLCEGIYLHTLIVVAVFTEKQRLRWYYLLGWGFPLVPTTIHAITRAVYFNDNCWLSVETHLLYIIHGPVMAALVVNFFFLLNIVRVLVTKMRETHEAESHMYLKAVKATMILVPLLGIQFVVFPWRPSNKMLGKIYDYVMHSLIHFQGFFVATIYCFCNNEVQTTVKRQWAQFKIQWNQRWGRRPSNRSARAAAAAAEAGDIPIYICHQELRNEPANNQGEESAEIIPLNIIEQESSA
T1 sequence (O60896 24-148 partner): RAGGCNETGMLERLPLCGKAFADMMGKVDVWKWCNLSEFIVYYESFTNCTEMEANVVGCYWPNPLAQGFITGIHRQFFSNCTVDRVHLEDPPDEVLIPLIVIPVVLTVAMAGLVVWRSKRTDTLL
Outline: (§1)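 EC50 values come from 4-parameter logistic fits of HTRF cAMP signal, normalised to maximal calcitonin or amylin effect. Peptides were tested in duplicate for 30 min at RT in IBMX-containing (0.5 mM) BSA/HEPES buffer pH 7.4 on stable 1321N1 (human CTR, AMYR3) or HEK (rat CTR, AMYR3) lines.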

[2] = biological target: T2, rat calcitonin receptor (rat CTR) (Rattus norvegicus, UniProt P32214); assay: cAMP production in HEK cells with stable recombinant expression of rat calcitonin receptor (rat CTR); format: cell-based; conditions: assay buffer with 0.1% BSA
T2 construct: expressed in transfected cells
T2 sequence (P32214 25-516): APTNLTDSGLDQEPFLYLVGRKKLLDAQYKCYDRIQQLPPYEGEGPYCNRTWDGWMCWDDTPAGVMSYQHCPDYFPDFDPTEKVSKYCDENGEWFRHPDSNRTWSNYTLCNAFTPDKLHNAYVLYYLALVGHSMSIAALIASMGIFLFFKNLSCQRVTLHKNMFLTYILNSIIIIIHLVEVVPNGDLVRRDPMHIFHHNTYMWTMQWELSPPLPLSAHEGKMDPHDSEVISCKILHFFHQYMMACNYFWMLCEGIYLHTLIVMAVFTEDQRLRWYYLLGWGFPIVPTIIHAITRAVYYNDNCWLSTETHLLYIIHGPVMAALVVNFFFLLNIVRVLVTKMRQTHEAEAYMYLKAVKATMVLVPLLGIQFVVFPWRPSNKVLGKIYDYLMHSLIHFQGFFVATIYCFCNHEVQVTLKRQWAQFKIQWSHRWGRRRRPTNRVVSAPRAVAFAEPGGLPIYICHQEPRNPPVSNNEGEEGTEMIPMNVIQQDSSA
Outline: as §1

[3] = Thioflavin T fibrillation assay; format: physicochemical; conditions: for Time taken to detect increase in fluorescence intensity: ThT fibrillation assay, peptide 1 mg/mL in 25 mM sodium acetate buffer pH 4.0, 6 days at 37 °C with shaking, >144 h = no increase
Outline: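 Peptides at 1 mg/mL in 25 mM sodium acetate pH 4.0 with ThT (from 0.25 mM stock), incubated 6 days at 37 °C with intermittent orbital shaking at 500–750 rpm. Fluorescence (ex 444/em 480 nm) read every 30 min; value is average time to a rise in baseline-corrected signal.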

[4] = biological target: T3, human calcitonin receptor (hCTR) (Homo sapiens, UniProt P30988); assay: cAMP production in 1321N1 cells with stable recombinant expression of human calcitonin receptor (hCTR); format: cell-based; conditions: cAMP, 1321N1 cells, assay buffer with 0.1% BSA; read-out: EC50 (pM) hCTR
T3 construct: expressed in transfected cells
T3 sequence (P30988 25-474): T1 sequence (P30988 25-474)
Outline: as §1

Row | Compound | Ratio (selectivity hAMYR vs hCTR, ratio of EC50 values at the two receptors) [1] | EC50 [1] | EC50 [2] | fibril-forming tendency ([3]; ThT assay, 1 mg/mL, pH 4.0, 37 °C, compared to pramlintide) | Time taken to detect increase in fluorescence intensity [3] | EC50 [4]
1 | CC[C@H](C)[C@H](NC(=O)[C@@H]1CCCN1C(=O)CNC(=O)[C@H](Cc1ccccc1)NC(=O)[C@H](CC(N)=O)NC(=O)[C@H](CC(N)=O)NC(=O)[C@H](CO)NC(=O)[C@H](CO)NC(=O)[C@H](Cc1c[nH]cn1)NC(=O)[C@@H](NC(=O)[C@H](CC(C)C)NC(=O)[C@H](Cc1ccccc1)NC(=O)[C@H](CC(N)=O)NC(=O)[C@H](C)NC(=O)[C@H](CC(C)C)NC(=O)[C@H](CCCNC(=N)N)NC(=O)[C@H](CCC(N)=O)NC(=O)[C@@H](NC(=O)[C@H](C)NC(=O)[C@@H]1CSSC[C@H](NC(=O)[C@H](CCCCN)NC(=O)CC[C@H](NC(=O)CCCCCCCCCCCCCCCCCCC(=O)O)C(=O)O)C(=O)N[C@@H](CC(N)=O)C(=O)N[C@@H]([C@@H](C)O)C(=O)N[C@@H](C)C(=O)N[C@@H]([C@@H](C)O)C(=O)N1)[C@@H](C)O)C(C)C)C(=O)N[C@@H](CC(C)C)C(=O)N1CCC[C@H]1C(=O)N1CCC[C@H]1C(=O)N[C@H](C(=O)N[C@@H](CC(N)=O)C(=O)N[C@H](C(=O)NCC(=O)N[C@@H](CO)C(=O)N[C@@H](CC(N)=O)C(=O)N[C@H](C(=O)N[C@@H](Cc1ccc(O)cc1)C(N)=O)[C@@H](C)O)C(C)C)[C@@H](C)O [Peptide 112] ({C20 diacid-γGlu}-KCNTATCATQRLANFLVHSSNNFGPILPPTNVGSNTY-NH2; disulfide 2-7) | 2 | 861 pM | 258 pM | increases the fibril-forming tendency | <5 h | 1340 pM
2 | CC[C@H](C)[C@H](NC(=O)[C@@H]1CCCN1C(=O)CNC(=O)[C@](C)(Cc1ccccc1)NC(=O)[C@H](CC(N)=O)NC(=O)[C@H](CC(N)=O)NC(=O)[C@H](CO)NC(=O)[C@H](CO)NC(=O)[C@H](Cc1c[nH]cn1)NC(=O)[C@H](CCCNC(=N)N)NC(=O)[C@H](CC(C)C)NC(=O)[C@H](Cc1ccccc1)NC(=O)[C@H](CC(N)=O)NC(=O)[C@H](C)NC(=O)[C@H](CC(C)C)NC(=O)[C@H](CCCNC(=N)N)NC(=O)[C@H](CCC(N)=O)NC(=O)[C@@H](NC(=O)[C@H](C)NC(=O)[C@@H]1CSSC[C@H](NC(=O)[C@H](CCCCN)NC(=O)[C@@H](N)CCCCNC(=O)CC[C@H](NC(=O)CCCCCCCCCCCCCCCCC(=O)O)C(=O)O)C(=O)N[C@@H](CC(N)=O)C(=O)N[C@@H]([C@@H](C)O)C(=O)N[C@@H](C)C(=O)N[C@@H]([C@@H](C)O)C(=O)N1)[C@@H](C)O)C(=O)N[C@@H](CC(C)C)C(=O)N1CCC[C@H]1C(=O)N1CCC[C@H]1C(=O)N[C@H](C(=O)N[C@@H](CCC(=O)O)C(=O)N[C@H](C(=O)NCC(=O)N[C@@H](CO)C(=O)N[C@@H](CC(N)=O)C(=O)N[C@H](C(=O)N[C@@H](Cc1ccc(O)cc1)C(N)=O)[C@@H](C)O)C(C)C)[C@@H](C)O [Peptide 15, K(γE-C18diacid)K[CNTATC]ATQRLANFLRHSSNN(αMePhe)GPILPPTEVGSNTY-amide] (H-K([γGlu-C18 diacid])KCNTATCATQRLANFLRHSSNN[αMeF]GPILPPTEVGSNTY-NH2; disulfide 3-8; N-terminus assumed) | 10 | 522 pM | 1820 pM |  | >144 h | 5460 pM
3 | CC[C@H](C)[C@H](NC(=O)[C@@H]1CCCN1C(=O)CNC(=O)[C@H](Cc1ccccc1)NC(=O)[C@H](CC(N)=O)NC(=O)[C@H](CC(N)=O)NC(=O)[C@H](CO)NC(=O)[C@H](CO)NC(=O)[C@H](Cc1c[nH]cn1)NC(=O)C(C)(C)NC(=O)[C@H](CC(C)C)NC(=O)[C@H](Cc1ccccc1)NC(=O)[C@H](CC(N)=O)NC(=O)[C@H](C)NC(=O)[C@H](CC(C)C)NC(=O)[C@H](CCCNC(=N)N)NC(=O)[C@H](CCC(N)=O)NC(=O)[C@@H](NC(=O)[C@H](C)NC(=O)[C@@H]1CSSC[C@H](NC(=O)[C@H](CCCCN)NC(=O)[C@@H](N)CCCCNC(=O)CC[C@H](NC(=O)CCCCCCCCCCCCCCCCC(=O)O)C(=O)O)C(=O)N[C@@H](CC(N)=O)C(=O)N[C@@H]([C@@H](C)O)C(=O)N[C@@H](C)C(=O)N[C@@H]([C@@H](C)O)C(=O)N1)[C@@H](C)O)C(=O)N[C@@H](CC(C)C)C(=O)N1CCC[C@H]1C(=O)N1CCC[C@H]1C(=O)N[C@H](C(=O)N[C@@H](CC(N)=O)C(=O)N[C@H](C(=O)NCC(=O)N[C@@H](CO)C(=O)N[C@@H](CC(N)=O)C(=O)N[C@H](C(=O)N[C@@H](Cc1ccc(O)cc1)C(N)=O)[C@@H](C)O)C(C)C)[C@@H](C)O [Peptide 129] (H-K([γGlu-C18 diacid])KCNTATCATQRLANFL[Aib]HSSNNFGPILPPTNVGSNTY-NH2; disulfide 3-8; N-terminus assumed) | 10.4 | 553 pM | 2870 pM |  | >144 h | 5750 pM
4 | CC[C@H](C)[C@H](NC(=O)[C@@H]1CCCN1C(=O)CNC(=O)[C@](C)(Cc1ccccc1)NC(=O)[C@H](CC(N)=O)NC(=O)[C@H](CC(N)=O)NC(=O)[C@H](CO)NC(=O)[C@H](CO)NC(=O)[C@H](Cc1c[nH]cn1)NC(=O)[C@H](CCCNC(=N)N)NC(=O)[C@H](CC(C)C)NC(=O)[C@H](Cc1ccccc1)NC(=O)[C@H](CC(N)=O)NC(=O)[C@H](C)NC(=O)[C@H](CC(C)C)NC(=O)[C@H](CCCNC(=N)N)NC(=O)[C@H](CCC(N)=O)NC(=O)[C@@H](NC(=O)[C@H](C)NC(=O)[C@@H]1CSSC[C@H](NC(=O)[C@@H](N)CCCCNC(=O)CC[C@H](NC(=O)CC[C@H](NC(=O)CCCCCCCCCCCCCCCCC(=O)O)C(=O)O)C(=O)O)C(=O)N[C@@H](CC(N)=O)C(=O)N[C@@H]([C@@H](C)O)C(=O)N[C@@H](C)C(=O)N[C@@H]([C@@H](C)O)C(=O)N1)[C@@H](C)O)C(=O)N[C@@H](CC(C)C)C(=O)N1CCC[C@H]1C(=O)N1CCC[C@H]1C(=O)N[C@H](C(=O)N[C@@H](CC(N)=O)C(=O)N[C@H](C(=O)NCC(=O)N[C@@H](CO)C(=O)N[C@@H](CC(N)=O)C(=O)N[C@H](C(=O)N[C@@H](Cc1ccc(O)cc1)C(N)=O)[C@@H](C)O)C(C)C)[C@@H](C)O [Peptide 20, K(γE-γE-C18diacid)[CNTATC]ATQRLANFLRHSSNN(αMePhe)GPILPPTNVGSNTY-amide] (H-K([γGlu-γGlu-C18 diacid])CNTATCATQRLANFLRHSSNN[αMeF]GPILPPTNVGSNTY-NH2; disulfide 2-7; N-terminus assumed) | 26 | 174 pM | 1850 pM |  | >144 h | 4590 pM
